In ChEMBL document CHEMBL1201862, “PubChem BioAssay data set” (2004):
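1) Cells in 96-well plates. 2) Compound, 48 h, 5 concentrations. 3) Linear interpolation between surrounding doses. 4) Unreached endpoint = highest concentration. GI50: concentration for 50% inhibition of growth.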 The source made the active and inactive calls. Rule as the data show it: active = GI50 up to about 1.1 µM and inactive = higher. *1 amine or outer side, *2 acyl side, *3 side chain or, on linkers, in order; H or OH if unused. Where a SMILES comes first, the peptide text is derived from it. Bridges are numbered along the chain shown (N, C = ends). [ ]: non-standard residue; d: D form. X36 = CC[C@H](C)[C@@H](N[*:1])[C@@H](O)CC(=O)O[C@H](C(=O)[C@H](C)C(=O)[*:2])C(C)C; NMeY = CN[C@@H](Cc1ccc(O)cc1)C(=O)O

Assays:
Assay in all cases: NCI anticancer screen, dose series, 48 h
SW-620 = tested on: SW-620
SK-MEL-2 = tested on: SK-MEL-2
HL-60 = tested on: HL-60
MCF7 = tested on: MCF7
NCI/ADR-RES = tested on: NCI/ADR-RES
NCI-H226 = tested on: NCI-H226
HCC 2998 = tested on: HCC 2998
A549 = tested on: A549
OVCAR-8 = tested on: OVCAR-8
COLO 205 = tested on: COLO 205
SF-268 = tested on: SF-268
SF-539 = tested on: SF-539
KM12 = tested on: KM12
Hs-578T = tested on: Hs-578T
UO-31 = tested on: UO-31
UACC-62 = tested on: UACC-62
HOP-92 = tested on: HOP-92
NCI-H23 = tested on: NCI-H23
A498 = tested on: A498
PC-3 = tested on: PC-3

Measured: GI50

O=C(CSCC(=O)N/N=C\c1ccc(O)c(O)c1O)N/N=C\c1ccc(O)c(O)c1O
inactive: SW-620 3.39 µM | SK-MEL-2 28.3 µM | HL-60 15.8 µM | MCF7 3.8 µM | NCI/ADR-RES 1.54 µM | NCI-H226 26.2 µM | HCC 2998 14.7 µM | A549 23.9 µM | OVCAR-8 2.31 µM | COLO 205 23.3 µM | SF-268 29.5 µM | SF-539 7.67 µM | KM12 18.3 µM | Hs-578T 30.8 µM | UO-31 13.7 µM | UACC-62 15.6 µM | HOP-92 31 µM | NCI-H23 1.69 µM | A498 29.7 µM

CCCCOCOc1ccccc1P1(=O)COc2ccccc2OC1
inactive: SW-620 > 100 µM | SK-MEL-2 > 100 µM | HL-60 34.7 µM | MCF7 75 µM | NCI/ADR-RES > 100 µM | HCC 2998 > 100 µM | A549 88.5 µM | COLO 205 63 µM | SF-268 > 100 µM | SF-539 > 100 µM | KM12 > 100 µM | Hs-578T 54 µM | PC-3 55.3 µM | UO-31 38.7 µM | UACC-62 66.2 µM | HOP-92 74.1 µM | NCI-H23 > 100 µM

CC(=O)O[C@H]1CCC2[C@@H]3CCC4Nc5oncc5C[C@]4(C)C3CC[C@@]21C (stereo partly drawn)
inactive: SW-620 > 10 µM | SK-MEL-2 > 10 µM | HL-60 1.98 µM | MCF7 8.55 µM | NCI/ADR-RES > 10 µM | NCI-H226 > 10 µM | HCC 2998 > 10 µM | A549 > 10 µM | OVCAR-8 > 10 µM | COLO 205 > 10 µM | SF-268 > 10 µM | SF-539 3.94 µM | KM12 > 10 µM | PC-3 > 10 µM | UO-31 > 10 µM | HOP-92 > 10 µM | NCI-H23 > 10 µM | A498 4.62 µM

CCCCNC(=S)Nc1nc(C(=O)NNC(=S)Nc2ccccc2)cs1
inactive: SW-620 > 100 µM | SK-MEL-2 44.9 µM | MCF7 > 100 µM | NCI/ADR-RES > 100 µM | NCI-H226 > 100 µM | HCC 2998 > 100 µM | A549 > 100 µM | OVCAR-8 > 100 µM | COLO 205 32.7 µM | SF-268 > 100 µM | SF-539 > 100 µM | KM12 > 100 µM | PC-3 > 100 µM | UO-31 > 100 µM | UACC-62 > 100 µM | HOP-92 21.4 µM | NCI-H23 > 100 µM | A498 33.1 µM

Cc1ccc(-n2cc(-c3ccc(Cl)cc3)c3c(NNC(=S)NCc4ccccc4)ncnc32)cc1
inactive: SW-620 4.69 µM | SK-MEL-2 3.17 µM | HL-60 6.98 µM | NCI/ADR-RES 6.37 µM | NCI-H226 92.7 µM | A549 4 µM | OVCAR-8 6.22 µM | COLO 205 10.7 µM | SF-268 8.53 µM | SF-539 13.6 µM | KM12 3.66 µM | Hs-578T 60.7 µM | PC-3 2.59 µM | UO-31 10.1 µM | UACC-62 18.1 µM | HOP-92 25.4 µM | NCI-H23 13.5 µM | A498 23.6 µM

CCCCCCCCCCCC(=O)Oc1c(Cl)cc(Cl)c(OC(=O)C(=O)Oc2c(Cl)cc(Cl)c(OC(=O)CCCCCCCCCCC)c2Cl)c1Cl
inactive: SW-620 > 100 µM | SK-MEL-2 > 10 µM | MCF7 > 100 µM | NCI/ADR-RES > 100 µM | A549 > 100 µM | OVCAR-8 > 100 µM | COLO 205 > 100 µM | SF-268 > 100 µM | KM12 > 100 µM | Hs-578T > 100 µM | PC-3 > 100 µM | UO-31 > 100 µM | UACC-62 > 100 µM | HOP-92 > 100 µM | NCI-H23 > 100 µM

CN1C(=O)C2(c3ccccc31)C1CC3C(CO1)C1C2C3(CO)CN1C#N (stereo not drawn)
inactive: SK-MEL-2 > 100 µM | HL-60 > 100 µM | MCF7 > 100 µM | NCI/ADR-RES > 100 µM | NCI-H226 > 100 µM | HCC 2998 > 100 µM | A549 > 100 µM | OVCAR-8 > 100 µM | COLO 205 > 100 µM | SF-268 > 100 µM | KM12 > 100 µM | Hs-578T > 100 µM | PC-3 > 100 µM | UO-31 > 100 µM | UACC-62 > 100 µM | HOP-92 > 100 µM | NCI-H23 > 100 µM

CCOC(=O)/C=C(/N=P(c1ccccc1)(c1ccccc1)c1ccccc1)C(F)(F)F
inactive: SK-MEL-2 > 10 µM | HL-60 > 10 µM | NCI/ADR-RES > 10 µM | NCI-H226 > 10 µM | HCC 2998 22 µM | A549 > 10 µM | OVCAR-8 > 10 µM | COLO 205 > 10 µM | SF-268 > 10 µM | SF-539 > 10 µM | KM12 > 10 µM | Hs-578T > 10 µM | PC-3 > 10 µM | UO-31 > 100 µM | UACC-62 5.9 µM | HOP-92 1.44 µM | NCI-H23 > 10 µM | A498 > 10 µM

Cc1ccc2c(c1)nc1n2C(c2c(F)cccc2F)SC1 (stereo not drawn)
inactive: SW-620 31.9 µM | SK-MEL-2 20 µM | MCF7 41.7 µM | NCI/ADR-RES 31.8 µM | NCI-H226 29 µM | HCC 2998 32.1 µM | A549 28.8 µM | OVCAR-8 39.5 µM | COLO 205 32.3 µM | SF-268 44.5 µM | SF-539 24.3 µM | KM12 34.4 µM | Hs-578T 15.7 µM | PC-3 20.7 µM | UO-31 26.9 µM | UACC-62 > 10 µM | NCI-H23 41.5 µM

CC[C@H](C)[C@H]1NC(=O)[C@@H](N)[C@@H](C)OC(=O)[C@H](Cc2ccc(OC)cc2)N(C)C(=O)[C@@H]2CCCN2C(=O)[C@H](CC(C)C)NC(=O)[C@@H](C)C(=O)[C@H](C(C)C)OC(=O)C[C@@H]1O (H-T[X36]LP[NMeY](Me); ester 1-C)
inactive: SW-620 19.5 µM | SK-MEL-2 46 µM | HL-60 11.7 µM | MCF7 33.7 µM | NCI/ADR-RES > 100 µM | NCI-H226 37.2 µM | HCC 2998 54.1 µM | A549 19.3 µM | OVCAR-8 50.7 µM | SF-268 49.5 µM | SF-539 26.8 µM | KM12 9.35 µM | Hs-578T 12.2 µM | PC-3 14.3 µM | UO-31 6.62 µM | UACC-62 29.9 µM | NCI-H23 35.4 µM

Cc1c(NC(=O)CCl)c(=O)oc2c(C)c3occc(=O)c3cc12
inactive: SW-620 11.5 µM | HL-60 5.28 µM | MCF7 6.79 µM | NCI/ADR-RES 18.6 µM | HCC 2998 16.9 µM | A549 14.5 µM | OVCAR-8 13.9 µM | COLO 205 14.3 µM | SF-268 6.95 µM | KM12 11.7 µM | Hs-578T 15.5 µM | UO-31 10.5 µM | HOP-92 14.2 µM | A498 16.9 µM
